Laboratory results: patent US20260217701A1, “SELECTIVE BET INHIBITORS AND USES THEREOF” (Tay Therapeutics Limited, priority 2022, published 2026)
Several values for one entry are separate records, joined by “and”; a condition that tells them apart may be missing. Equal entries are not always repeated. Where two headings read alike, the source gives them in different places.

Test: Dog PK study #2 (Compound A IV, HPBCD formulation)
Assay type: in vivo, beagle dogs
Description: For Dog PK study #2, a solution of Compound A was prepared in HPBCD (20% solution w/v)/DMSO (99/1) with a concentration of 0.5 mg/mL (Table 2B). The Compound A solution was administered to animals intravenously (IV), and animals were monitored over a 24 h period (Table 3C). Body weight was recorded prior to dosing, and detailed clinical observations were made prior to dosing and throughout the study, as needed.
Blood samples (~0.3 mL) were collected according to a schedule (shown below) by venipuncture of peripheral veins except for the dosing vein, and EDTA-K2 was used as anticoagulant. Within 30 minutes of collection, the samples were centrifuged at approximately 2000 times g-force for 10 minutes at 4° C. to obtain blood plasma. The plasma samples were immediately divided into two aliquots (~75 μL each), transferred to a cryogenic vial, and stored in a freezer at −75+15° C. prior to analysis.
Blood samples were collected at 0.083, 0.25, 0.5, 1, 2, 4, 8, and 24 h following the initial dosing (0 h).
The concentration of Compound A in the blood plasma was determined through liquid chromatography-mass spectrometry (LC-MS). The experiments were conducted on a Shimadzu HPLC(DGU-20A5R; LC-30AD; SIL-30AC; Rack Changer II; CTO-30A; and CBM-20A) and AB API 5500 LC/MS/MS instrument with an Agilent Poroshell EC-C18 4 μm (50×2.1 mm) column. A gradient of 95% water (0.1% formic acid)/95% acetonitrile (0.1% formic acid) was used as the mobile phase. The sample injection volume was 4 μL, and the flow rate was 0.6 mL/min. The gathered data were used for pharmacokinetic calculations using T1/2, CO, AUClast, AUCinf, MRTinf, Cl, Vss, and Number of Points for Regression as parameters.
The desired serial concentrations of working solutions were achieved by diluting stock solution of analyte with 50% acetonitrile in water solution. 5 μL of working solutions (5, 10, 20, 50, 100, 500, 1000, 5000, 10000 ng/ml) were added to 50 µL of the blank Beagle Dogs plasma to achieve calibration standards of 0.5~1000 ng/ml (0.5, 1, 2, 5, 10, 50, 100, 500, 1000 ng/ml) in a total volume of 55 μL. Five quality control samples at 1 ng/ml, 2 ng/mL, 5 ng/ml, 50 ng/mL and 800 ng/mL for plasma were prepared independently of those used for the calibration curves. These QC samples were prepared on the day of analysis in the same way as calibration standards.
55 μL standards, 55 μL QC samples and 55 μL unknown samples (50 μL plasma with 5 μL blank solution) were added to 200 μL of acetonitrile containing IS mixture (verapamil) for precipitating protein respectively. Then the samples were vortexed for 30 s. After centrifugation at 4° C., 3900 rpm for 15 min, the supernatant was diluted 3 times with water. 4 μL of diluted supernatant was injected into the LC/MS/MS system for quantitative analysis.

[1] = IV 1 mg/kg, HPBCD formulation, individual animals, 1 mg/kg
[2] = IV 1 mg/kg, HPBCD formulation, mean
[3] = beagle, dog, plasma, iv, 1 mg/kg, IV 1 mg/kg, HPBCD formulation, individual animals, read-out: Plasma concentration
[4] = beagle, dog, plasma, iv, 1 mg/kg, IV 1 mg/kg, HPBCD formulation, mean, read-out: Average plasma concentration
[5] = beagle, dog, plasma, iv, 1 mg/kg, IV 1 mg/kg, HPBCD formulation, mean

Structure (SMILES): Cn1cc(-c2ccccc2)c(-c2cn(C)c(=O)c3[nH]c(-c4cnn(C(F)(F)F)c4)cc23)cc1=O [Compound A, 6-methyl-4-(1-methyl-2-oxo-5-phenyl-1,2-dihydropyridin-4-yl)-2-(1-(trifluoromethyl)-1H-pyrazol-4-yl)-1,6-dihydro-7H-pyrrolo[2,3-c]pyridin-7-one]
- clinical observations, HPBCD vs propylene glycol formulation (IV): fewer clinical observations
- AUClast [1]: 4409 ng·h/mL and 1577 ng·h/mL and 1732 ng·h/mL
- AUClast/D [1]: 4409 (ng · h/mL)/(mg/kg) and 1577 (ng · h/mL)/(mg/kg) and 1732 (ng · h/mL)/(mg/kg)
- AUClnf [1]: 4854 ng·h/mL and 1674 ng·h/mL and 2083 ng·h/mL
- AUC—%Extrap—obs [1]: 9.17% and 5.83% and 16.8%
- C0 [1]: 476 ng/mL and 410 ng/mL
- CI_obs [1]: 3.43 mL/min/kg and 9.95 mL/min/kg and 8.00 mL/min/kg
- MRTlnf—obs [1]: 9.30 h and 6.26 h and 11.8 h
- T1/2 [1]: 6.45 h and 10.1 h
- Vss—obs [1]: 1.91 L/kg and 3.74 L/kg and 5.67 L/kg
- AUClast/D [2]: 2573 (ng · h/mL)/(mg/kg)
- AUC—%Extrap—obs [2]: 10.6%
- CI_obs [2]: 7.13 mL/min/kg
- MRTlnf—obs [2]: 9.1 h
- concentration at 0.083 h [3]: 479 ng/mL
- concentration at 0.083 h [4]: 446 ng/mL
- concentration at 0.25 h [3]: 540 ng/mL
- concentration at 0.25 h [4]: 450 ng/mL
- concentration at 0.5 h [3]: 405 ng/mL
- concentration at 0.5 h [4]: 328 ng/mL
- concentration at 1 h [3]: 331 ng/mL
- concentration at 1 h [4]: 269 ng/mL
- concentration at 2 h [3]: 323 ng/mL
- concentration at 2 h [4]: 232 ng/mL
- concentration at 4 h (beagle, dog, plasma, iv, 1 mg/kg, IV 1 mg/kg, HPBCD formulation, 4 h, mean): 176 ng/mL
- concentration at 8 h (beagle, dog, plasma, iv, 1 mg/kg, IV 1 mg/kg, HPBCD formulation, 8 h, mean): 100 ng/mL
- concentration at 24 h (beagle, dog, plasma, iv, 1 mg/kg, IV 1 mg/kg, HPBCD formulation, 24 h, mean): 26 ng/mL
- half-life (beagle, dog, plasma, iv, 1 mg/kg, IV 1 mg/kg, HPBCD formulation, individual animals): 7.11 h
- C0 (beagle, dog, plasma, iv, 1 mg/kg, IV 1 mg/kg, HPBCD formulation, individual animals, read-out: C0): 479 ng/mL
- AUC [5]: 2870 ng·h/mL
- AUC(0-t) [5]: 2570 ng·h/mL
- half-life [5]: 7.9 h
- C0 (beagle, dog, plasma, iv, 1 mg/kg, IV 1 mg/kg, HPBCD formulation, mean, read-out: C0): 455 ng/mL
- Vd (beagle, dog, plasma, iv, 1 mg/kg, IV 1 mg/kg, HPBCD formulation, mean, read-out: Vss—obs): 3.77 L/kg
